One assay concerns IMR-32. As to the kind of experiment: Anticancer activity against human IMR32 cells at 10 uM after 48 hrs by sulforhodamine B assay. Type of assay: functional, cell-based. On the technique in general: The SRB assay estimates cell density from bound dye.
A further assay relates to Rattus norvegicus. As to the kind of experiment: Antiinflammatory activity against carrageenan-induced paw oedema in Charles Foster albino rat at 50 mg/kg, po administered 30 mins before carrageenan challenge measured after 1 to 3 hrs by water plethysmometer. Type of assay: functional.
Another assay has as its system DU-145. Kind of assay: Anticancer activity against human DU145 cells at 10 uM after 48 hrs by sulforhodamine B assay. Format: functional, cell-based.
In a further assay the test system is HepG32. As to the kind of experiment: Anticancer activity against human […] cells at 10 uM after 48 hrs by sulforhodamine B assay. Type of assay: functional, cell-based.
The test system of a further assay is HCT-15. Kind of assay: Anticancer activity against human HCT15 cells at 10 uM after 48 hrs by sulforhodamine B assay. Format: functional, cell-based.
The subject of the next assay is A549. Kind of assay: Anticancer activity against human A549 cells at 10 uM after 48 hrs by sulforhodamine B assay. Format: functional, cell-based.
The subject of the next assay is HOP-62. Kind of assay: Anticancer activity against human HOP62 cells at 10 uM after 48 hrs by sulforhodamine B assay. Format: functional, cell-based.

Activity calls are given as the source filed them. The calls are words filed in the database; no cut-off is given here.

These results are taken from ChEMBL document CHEMBL1154809, “Conventional and microwave assisted synthesis of small molecule based biologically active heterocyclic amidine derivatives” (2010).

For the compound `N/C(=N/CCCn1ccnc1)c1cnccn1`, the outcome in the assay with IMR-32, in the assay on DU-145, with HepG32, with HCT-15, with A549 and in the assay with HOP-62 was inactive. This compound also yielded an Activity with Rattus norvegicus of 21.8%.
For the compound `N/C(=N/Cc1ccncc1)c1ccncc1`, the result in the assay with IMR-32, with DU-145, in the assay on HepG32, in the assay with HCT-15, in the assay on A549 and in the assay on HOP-62 was inactive. In the assay with Rattus norvegicus, this compound displayed an Activity of 31%.
With `N/C(=N/CCCn1ccnc1)c1ccccn1`, the outcome in the assay on IMR-32, in the assay with DU-145, in the assay on HepG32, in the assay with HCT-15, in the assay with A549 and with HOP-62 was inactive. In the assay with Rattus norvegicus, the Activity is recorded as 18.8%.
Regarding `N/C(=N/CCc1c[nH]cn1)c1ccncc1`, the outcome in the assay on IMR-32, in the assay on DU-145, in the assay with HepG32, with HCT-15, in the assay with A549 and in the assay with HOP-62 was inactive. The compound also gave an Activity in the assay on Rattus norvegicus of 22.1%.
`N/C(=N/Cc1ccco1)c1cnccn1`: the outcome in the assay on IMR-32, in the assay on DU-145, with HepG32, in the assay on HCT-15, in the assay on A549 and in the assay with HOP-62 was inactive. In addition, the Activity with Rattus norvegicus was determined as 36.6%.
For `N/C(=N/CCc1c[nH]c2ccccc12)c1ccncc1`, the outcome with IMR-32, with DU-145, with HepG32, in the assay on HCT-15, in the assay on A549 and with HOP-62 was inactive. The same compound displayed an Activity with Rattus norvegicus of 28.2%.
Take `N/C(=N/Cc1ccccn1)c1cnccn1`: the outcome with IMR-32, in the assay with DU-145, with HepG32, in the assay with HCT-15, with A549 and in the assay with HOP-62 was inactive. The same compound yielded an Activity in the assay on Rattus norvegicus of 0%.
Turning to `N/C(=N/Cc1ccco1)c1ccccn1`, the outcome in the assay on IMR-32, in the assay on DU-145, with HepG32, in the assay with HCT-15, in the assay on A549 and in the assay with HOP-62 was inactive. Besides, the Activity with Rattus norvegicus was found to be 28.7%.
In the case of `N/C(=N/CCc1c[nH]c2ccccc12)c1ccccn1`, the result in the assay on IMR-32, in the assay on DU-145, in the assay on HepG32, with HCT-15, in the assay on A549 and in the assay with HOP-62 was inactive. Moreover, the Activity in the assay with Rattus norvegicus is 23.6%.
`N/C(=N/CCCn1ccnc1)c1ccncc1`: the result in the assay on IMR-32, in the assay with DU-145, with HepG32, with HCT-15, with A549 and in the assay on HOP-62 was inactive. Moreover, the Activity in the assay with Rattus norvegicus came out at 10%.
For `N/C(=N/CCc1c[nH]cn1)c1ccccn1`, the result in the assay on IMR-32, in the assay on DU-145, in the assay with HepG32, in the assay with HCT-15, in the assay on A549 and in the assay on HOP-62 was inactive. Also, the Activity in the assay on Rattus norvegicus came out at 26.8%.
`N/C(=N/Cc1ccccn1)c1ccncc1`: the result in the assay on IMR-32, with DU-145, in the assay with HepG32, in the assay with HCT-15, in the assay with A549 and in the assay on HOP-62 was inactive. Besides, in the assay on Rattus norvegicus, the Activity is on record as 33.8%.
As to `CC(C)Cc1ccc(C(C)C(=O)O)cc1` (stereo unspecified) [IBUPROFEN], the result in the assay on IMR-32, in the assay on DU-145, in the assay on HepG32, in the assay on HCT-15, with A549 and with HOP-62 was inactive. This compound had an Activity in the assay on Rattus norvegicus of 39%.
With `N/C(=N/CCc1c[nH]c2ccccc12)c1cnccn1`, the outcome in the assay with IMR-32, in the assay with DU-145, in the assay with HepG32, in the assay on HCT-15, in the assay with A549 and with HOP-62 was inactive. Also, the Activity in the assay with Rattus norvegicus came to 23.9%.
`N/C(=N/Cc1ccco1)c1ccncc1`: the outcome in the assay on IMR-32, in the assay on DU-145, in the assay with HepG32, with HCT-15, in the assay with A549 and with HOP-62 was inactive. In addition, the Activity with Rattus norvegicus is listed as 15.2%.
In the case of `N/C(=N/Cc1ccncc1)c1cnccn1`, the outcome in the assay with IMR-32, with DU-145, in the assay on HepG32, in the assay with HCT-15, in the assay with A549 and in the assay with HOP-62 was inactive. The Activity in the assay with Rattus norvegicus is 32%.
Consider `N/C(=N/CCc1c[nH]cn1)c1cnccn1`, for which the result in the assay on IMR-32, in the assay with DU-145, in the assay on HepG32, in the assay on HCT-15, in the assay on A549 and with HOP-62 was inactive. The compound further showed an Activity in the assay with Rattus norvegicus of 25.4%.
With `N/C(=N/Cc1ccncc1)c1ccccn1`, the result in the assay with IMR-32, with DU-145, with HepG32, in the assay on HCT-15, in the assay with A549 and with HOP-62 was inactive. For the same compound, the Activity in the assay with Rattus norvegicus is on record as 28.2%.
